# Measurements published in patent US9187413B2, “Peripherally restricted FAAH inhibitors” (The Regents of the University of California, priority 2010, dated 2015).
# Read-outs that look alike come from different tables or passages of the source.
# What was measured:
# [1] = Drug distribution coefficient n-octanol/buffer pH 7.4; assay type: physicochemical; conditions: n-octanol / aqueous buffer pH 7.4, 25±1° C., mean±sem, n=3; read-out: distribution coefficient, Log Doct,pH7.4
# Protocol: Drug distribution coefficients. We determined Log D7.4,oct values at room temperature (25±1° C.) partitioning the solutes between n-octanol and an aqueous solution buffered at pH 7.4^36.
# [2] = tested on: carrageenan-induced inflammation; test: Carrageenan-induced hyperalgesia, allodynia and paw edema; assay type: in vivo, mice; conditions: mice, 1 mg-kg^-1, i.p.
# Protocol: Behavioral tests. We measured nocifensive responses elicited by i.p. injection of acetic acid in male Swiss and C57B1/6 (wild-type or FAAH-deficient) mice^40, intraplantar injection of carrageenan in male Swiss mice^20, intraplantar injection of formalin in male Sprague-Dawley rats^41, and sciatic nerve ligation in male Swiss mice^39.
# Behavioral tests Acetic acid-induced writhing was measured in Swiss mice or C57B1/6 mice (wild-type and FAAH-deficient), as described^40 with minor modifications. Briefly, the mice were acclimated to the experimental room for 2 h. Each animal was injected with acetic acid (150 μL, 0.6% in saline) and placed into a glass cylinder. Abdominal stretches (extension of body and hind limbs) were counted for 20 min, starting 5 min after acetic acid injection. […] Behavior was scored by an observer blinded to the treatment conditions. Formalin-induced nociception was assessed in Sprague-Dawley rats, as described^41. The rats were singly housed and kept in a shared holding room under a 12:12 h light:dark cycle. They were given free access to food and water, and allowed to acclimate to the facility for a week before testing. […] They were acclimated to the observation container (clear plexiglas box, 29×29×25 cm) for 15 min before receiving an injection of formalin (50 μL, 5% in saline) into the dorsal surface of the right hind paw. Immediately after formalin injection, the rats were returned to the observation container and nocifensive behavior was recorded for 60 min with a video camera. Recordings were analyzed by observers blinded to treatment conditions. Nocifensive behavior was measured continuously for 60 min^41. […] Each 5-min bin was analyzed for time spent (1) lifting and (2) licking or biting the injected paw. Nocifensive behavior was analyzed using the composite pain score weighted scores technique (CPS-WST1,2) calculated for the entire time of observation (0-60 min) and, separately, for the first (0-10 min) and second phase (10-60 min) of the behavioral response^46. The area under the curve (AUC) corresponding to CPS-WST1,2 was calculated using the trapezoidal rule. Paw edema was induced in mice by injection into the right hind paws of 50 μL of sterile saline containing 1% λ-carrageenan. Paw volumes were measured using a plethysmometer (Ugo Basile, Milan, Italy). […] Rimonabant and AM630 (1 mg kg^−1, i.p.) were injected 30 min before carrageenan. Mechanical hyperalgesia was assessed by measuring the latency(s) to withdraw the paw from a constant mechanical pressure exerted onto its dorsal surface. A 15-g calibrated glass cylindrical rod (diameter=10 mm) chamfered to a conical point (diameter=3 mm) was used to exert the mechanical force. The weight was suspended vertically between two rings attached to a stand and was free to move vertically. A cutoff time of 3 min was used. Thermal hyperalgesia was assessed as described^47, measuring the latency to withdraw the hind paw from a focused beam of radiant heat (thermal intensity: infrared 3.0) applied to the plantar surface, using a commercial apparatus (Ugo Basile, Varese, Italy). The cutoff time was set at 30 s. Mechanical allodynia was assessed by applying a graded force to the plantar hind paw surface with a Von Frey filament, using a Dynamic Plantar Anesthesiometer (Ugo Basile). The cutoff force was set at 50 g.
# [3] = Drug transport assay through polarized TC7 monolayers; assay type: in vitro ADME; conditions: human
# Protocol: (§1) Drug transport assays. Assays were performed at Cerep Inc. (Redmond, Wash.), following protocols outlined in the company's web-site (http://www.cerep.fr).
# (§2) Drug transport assays Transport assays were conducted at Cerep Inc. (Redmond, Wash.). Cellular permeability was determined in the apical (A) to basal (B) and the B to A direction in the presence of 10 μM compound in Hanks' buffered salt solution containing 1% dimethylsulfoxide (DMSO). Efflux ratios were calculated as the ratio of B-A to A-B permeabilities.
# Pgp = test: as above; assay type: in vitro ADME; conditions: human, Caco-2, with verapamil (100 μM); TC7 monolayers, Pgp inhibitor verapamil (100 μM); read-out: B-A permeability with verapamil
# Protocol: as §1, §2
# Fos protein = test: Formalin-induced Fos expression in lumbar spinal cord; assay type: in vivo; conditions: rats, URB937 1 mg-kg^-1, i.p., lumbar spinal cord
# Protocol: Fos expression. We measured Fos protein levels by quantitative immunocytochemistry^5 on slices of lumbar (L4/L5) spinal cord from male Sprague-Dawley rats.
# Fos immunohistochemistry Two hours after formalin injection into the dorsal paw, rats received a lethal dose of Nembutal (50 mg-mL^−1). They were perfused through the heart with 100 mL of 1% heparinized phosphate buffered saline (PBS) followed by 300 mL of ice-cold 4% paraformaldehyde. The lumbar-sacral region of the spinal cord was collected from each rat. Spinal cords were post fixed in 4% paraformaldehyde at 4° C. for 24 h and then cryoprotected in 30% sucrose at 4° C. for 24-48 hours. Spinal cords were cryostat-cut into 40 μm transverse sections at the level of the lumbar enlargement (L4/L5). Free floating alternating sections were kept in a series of wells filled with PBS. Every fourth section was processed for Fos immunoreactivity to ensure that the same cell would not be counted twice. Endogenous peroxidases were inactivated by incubation in hydrogen peroxide. […]
# Selection of sections and quantification of the number of Fos-positive cells was performed by an observer blinded to experimental conditions. […] Using Image J, Fos expressing cells were counted in each subdivision, regardless of staining intensity, by an observer blinded to experimental treatments.
smiles,measurement,setting,value
"NC(=O)c1cccc(-c2cc(OC(=O)NC3CCCCC3)ccc2O)c1 [Compound 1b, cyclohexylcarbamic acid 3′-carbamoyl-6-hydroxybiphenyl-3-yl ester]",logD,[1],3.03 ± 0.01
same,"carrageenan-induced paw edema, 4 h",[2]; 4 h after carrageenan,did not affect paw edema
same,carrageenan-induced mechanical and thermal hyperalgesia,[2]; 4 h and 24 h following carrageenan,significant decrease
same,carrageenan-induced mechanical allodynia,[2]; 24 h after carrageenan,suppressed mechanical allodynia
same,"carrageenan-induced paw edema, 24 h",[2]; 24 h after carrageenan,reversed it
same,recovery at 10 μM,"[3]; Caco-2, TC7 monolayers, 10 μM compound, read-out: % recovery A-B",83%
same,recovery at 10 μM,"[3]; Caco-2, TC7 monolayers, 10 μM compound, read-out: % recovery B-A",95%
same,recovery at 10 μM,"[3]; Caco-2, with verapamil 100 μM, TC7 monolayers, verapamil (100 μM), read-out: % recovery B-A with verapamil",94%
same,Papp A→B at 10 μM,"[3]; Caco-2, TC7 monolayers, 10 μM compound, mean of 2 independent experiments, read-out: permeability A-B",3.8 ×10⁻⁶ cm/s
same,Papp B→A at 10 μM,"[3]; Caco-2, TC7 monolayers, 10 μM compound, mean of 2 independent experiments, read-out: permeability B-A",37.1 ×10⁻⁶ cm/s
same,Papp B→A at 10 μM,Pgp,32.2 ×10⁻⁶ cm/s
same,formalin-induced Fos expression,Fos protein,lowered the Fos response to formalin
